According to ChEMBL document CHEMBL6087477, “G9a/GLP Modulators: Inhibitors to Degraders” (J Med Chem, 2025):
pEC50, pIC50, pKi: −log10 of the molar value. Each block holds one compound with its values, some of them ahead of it.

Legend:
[1] = biological target: T1, Histone-lysine N-methyltransferase EHMT2 (Homo sapiens, UniProt Q96KQ7); assay: Inhibition of G9a (unknown origin)
T1 sequence (Q96KQ7 whole entry): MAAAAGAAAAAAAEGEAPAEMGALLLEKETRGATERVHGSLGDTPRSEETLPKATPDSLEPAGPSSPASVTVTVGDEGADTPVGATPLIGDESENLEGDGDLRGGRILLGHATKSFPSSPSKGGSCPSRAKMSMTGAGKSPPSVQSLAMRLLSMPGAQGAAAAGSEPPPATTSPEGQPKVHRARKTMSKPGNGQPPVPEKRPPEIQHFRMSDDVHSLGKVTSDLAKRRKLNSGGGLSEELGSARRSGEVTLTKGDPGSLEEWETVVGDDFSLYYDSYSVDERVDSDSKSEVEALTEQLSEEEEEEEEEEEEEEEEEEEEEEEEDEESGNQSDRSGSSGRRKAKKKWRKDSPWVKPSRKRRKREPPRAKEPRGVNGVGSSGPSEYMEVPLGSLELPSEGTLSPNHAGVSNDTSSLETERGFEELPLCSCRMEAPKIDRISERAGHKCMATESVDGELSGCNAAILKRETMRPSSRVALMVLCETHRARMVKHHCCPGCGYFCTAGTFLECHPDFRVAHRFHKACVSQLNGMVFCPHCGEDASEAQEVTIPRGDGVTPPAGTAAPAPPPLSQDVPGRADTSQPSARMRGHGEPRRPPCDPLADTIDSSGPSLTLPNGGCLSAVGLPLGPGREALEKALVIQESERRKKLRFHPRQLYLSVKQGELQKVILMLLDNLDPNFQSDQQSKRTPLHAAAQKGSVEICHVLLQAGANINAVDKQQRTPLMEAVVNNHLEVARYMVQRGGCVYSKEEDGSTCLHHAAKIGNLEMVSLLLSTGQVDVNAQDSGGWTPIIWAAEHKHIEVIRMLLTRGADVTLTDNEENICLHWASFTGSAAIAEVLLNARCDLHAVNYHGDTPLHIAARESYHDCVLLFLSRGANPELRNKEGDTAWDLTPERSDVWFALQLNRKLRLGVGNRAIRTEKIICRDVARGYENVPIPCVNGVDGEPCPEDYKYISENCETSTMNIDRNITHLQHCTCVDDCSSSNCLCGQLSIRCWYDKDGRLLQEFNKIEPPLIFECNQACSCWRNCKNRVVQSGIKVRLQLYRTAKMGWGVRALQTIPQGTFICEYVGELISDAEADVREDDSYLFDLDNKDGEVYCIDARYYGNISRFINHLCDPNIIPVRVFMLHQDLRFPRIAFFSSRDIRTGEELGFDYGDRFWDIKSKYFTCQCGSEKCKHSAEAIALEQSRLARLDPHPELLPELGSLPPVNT

[2] = biological target: T2, Histone-lysine N-methyltransferase EHMT1 (Homo sapiens, UniProt Q9H9B1); assay: Inhibition of GLP (unknown origin)
T2 sequence (Q9H9B1 whole entry): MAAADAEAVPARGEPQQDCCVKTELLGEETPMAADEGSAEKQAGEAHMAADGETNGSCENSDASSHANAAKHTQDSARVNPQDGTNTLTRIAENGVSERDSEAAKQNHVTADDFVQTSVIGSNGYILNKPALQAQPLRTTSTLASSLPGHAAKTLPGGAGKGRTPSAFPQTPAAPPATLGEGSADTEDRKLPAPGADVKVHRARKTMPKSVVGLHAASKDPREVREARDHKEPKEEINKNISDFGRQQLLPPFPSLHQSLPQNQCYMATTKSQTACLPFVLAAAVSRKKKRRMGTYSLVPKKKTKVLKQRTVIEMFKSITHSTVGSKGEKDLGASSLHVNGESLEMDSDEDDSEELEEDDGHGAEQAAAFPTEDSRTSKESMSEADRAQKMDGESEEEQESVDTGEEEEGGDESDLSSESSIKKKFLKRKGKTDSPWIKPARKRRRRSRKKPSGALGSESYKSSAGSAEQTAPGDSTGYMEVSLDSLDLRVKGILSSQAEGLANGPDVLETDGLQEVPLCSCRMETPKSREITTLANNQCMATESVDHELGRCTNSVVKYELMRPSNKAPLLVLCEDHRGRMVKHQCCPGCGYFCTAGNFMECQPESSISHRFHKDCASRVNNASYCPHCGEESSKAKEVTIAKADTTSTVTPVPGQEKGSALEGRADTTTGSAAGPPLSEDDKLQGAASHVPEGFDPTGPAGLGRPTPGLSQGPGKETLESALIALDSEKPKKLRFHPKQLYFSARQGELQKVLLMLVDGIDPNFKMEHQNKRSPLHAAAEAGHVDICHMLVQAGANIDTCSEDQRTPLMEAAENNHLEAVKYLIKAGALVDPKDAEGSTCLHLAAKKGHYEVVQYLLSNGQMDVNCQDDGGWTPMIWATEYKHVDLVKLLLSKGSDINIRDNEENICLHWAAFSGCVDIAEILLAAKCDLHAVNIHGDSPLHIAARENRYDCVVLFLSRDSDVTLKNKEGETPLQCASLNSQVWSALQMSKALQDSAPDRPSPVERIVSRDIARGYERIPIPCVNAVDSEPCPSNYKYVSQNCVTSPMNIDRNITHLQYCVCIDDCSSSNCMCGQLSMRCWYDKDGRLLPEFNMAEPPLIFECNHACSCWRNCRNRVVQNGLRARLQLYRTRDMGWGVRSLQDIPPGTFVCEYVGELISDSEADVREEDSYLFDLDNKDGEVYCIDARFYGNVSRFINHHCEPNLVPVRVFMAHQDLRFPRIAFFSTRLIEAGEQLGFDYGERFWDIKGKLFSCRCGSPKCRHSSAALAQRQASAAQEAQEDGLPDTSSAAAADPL

[3] = Cmax in mouse at 10 mg/kg, po; type: ADME, organism-based; conditions: in vivo
[4] = biological target: T1, Histone-lysine N-methyltransferase EHMT2; assay: Binding affinity to G9a (unknown origin) assessed as inhibition constant
[5] = biological target: T2, Histone-lysine N-methyltransferase EHMT1; assay: Binding affinity to GLP (unknown origin) assessed as inhibition constant
[6] = test system: MCF7; assay: Cytotoxicity against human MCF7 cells; type: functional, cell-based
[7] = Antiproliferative activity against human WSU-FSCCL cells assessed as reduction in cell viability; type: functional, cell-based
[8] = Antiproliferative activity against human WILL-1 cells assessed as reduction in cell viability; type: functional, cell-based
[9] = test system: DOHH-2; assay: Antiproliferative activity against human DOHH-2 cells assessed as reduction in cell viability; type: functional, cell-based
[10] = Antiproliferative activity against human SC1 cells assessed as reduction in cell viability; type: functional, cell-based; conditions: SC-1
[11] = test system: DB; assay: Antiproliferative activity against human DB cells assessed as reduction in cell viability; type: functional, cell-based
[12] = test system: SU-DHL-8; assay: Antiproliferative activity against human SU-DHL-8 cells assessed as reduction in cell viability; type: functional, cell-based
[13] = test system: MCF7; assay: Antiproliferative activity against human MCF7 cells assessed as reduction in cell viability by sulforhodamine B assay; type: functional, cell-based
[14] = test system: T47D; assay: Antiproliferative activity against human T47D cells assessed as reduction in cell viability by sulforhodamine B assay; type: functional, cell-based
[15] = test system: SK-BR-3; assay: Antiproliferative activity against human SK-BR-3 cells assessed as reduction in cell viability by sulforhodamine B assay; type: functional, cell-based
[16] = Microsomal stability in human liver microsomes assessed as half life measured for incubated upto 60 mins by LC-MS/MS analysis; type: ADME, Microsome
[17] = Microsomal stability in mouse liver microsomes assessed as half life incubated upto 60 mins by LC-MS/MS analysis; type: ADME, Microsome
[18] = Half life in Balb/c mouse at 3 mg/kg, iv; type: ADME, organism-based; conditions: in vivo
[19] = biological target: T2, Histone-lysine N-methyltransferase EHMT1; assay: Inhibition of GLP (unknown origin) measured after 20 mins by fluorescence based analysis
[20] = biological target: hERG (KCNH2) (Homo sapiens, UniProt Q12809); assay: Inhibition of hERG at 30 uM relative to control; type: toxicity
Sequence of hERG (KCNH2) (Q12809 whole entry): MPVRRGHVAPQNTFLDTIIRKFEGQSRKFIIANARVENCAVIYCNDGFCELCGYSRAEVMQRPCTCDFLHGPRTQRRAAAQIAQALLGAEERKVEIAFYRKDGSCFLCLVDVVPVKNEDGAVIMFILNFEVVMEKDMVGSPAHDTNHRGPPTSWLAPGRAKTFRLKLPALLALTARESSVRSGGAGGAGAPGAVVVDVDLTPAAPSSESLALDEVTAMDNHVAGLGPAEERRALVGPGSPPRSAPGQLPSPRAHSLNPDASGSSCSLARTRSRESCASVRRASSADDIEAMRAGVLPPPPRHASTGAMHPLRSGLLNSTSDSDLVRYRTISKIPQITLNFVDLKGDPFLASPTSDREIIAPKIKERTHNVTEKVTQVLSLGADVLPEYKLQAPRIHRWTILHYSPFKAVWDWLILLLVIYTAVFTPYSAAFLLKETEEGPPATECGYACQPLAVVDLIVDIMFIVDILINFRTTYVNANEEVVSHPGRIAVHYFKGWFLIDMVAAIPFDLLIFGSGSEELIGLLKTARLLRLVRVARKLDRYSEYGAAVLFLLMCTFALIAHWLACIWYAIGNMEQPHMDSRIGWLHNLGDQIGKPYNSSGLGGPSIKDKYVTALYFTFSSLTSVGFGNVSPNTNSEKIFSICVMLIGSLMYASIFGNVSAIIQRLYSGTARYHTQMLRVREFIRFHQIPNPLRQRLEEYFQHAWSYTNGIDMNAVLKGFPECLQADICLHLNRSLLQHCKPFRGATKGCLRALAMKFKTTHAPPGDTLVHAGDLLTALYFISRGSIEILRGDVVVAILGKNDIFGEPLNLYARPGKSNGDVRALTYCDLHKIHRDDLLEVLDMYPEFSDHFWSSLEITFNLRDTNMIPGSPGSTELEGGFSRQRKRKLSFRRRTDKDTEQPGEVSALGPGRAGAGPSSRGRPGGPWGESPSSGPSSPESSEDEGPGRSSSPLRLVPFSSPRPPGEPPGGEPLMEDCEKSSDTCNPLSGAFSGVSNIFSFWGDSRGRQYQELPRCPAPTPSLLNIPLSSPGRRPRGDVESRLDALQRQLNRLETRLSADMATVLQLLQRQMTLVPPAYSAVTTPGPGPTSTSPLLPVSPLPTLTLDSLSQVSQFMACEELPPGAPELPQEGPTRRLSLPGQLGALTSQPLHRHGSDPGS

[21] = biological target: T1, Histone-lysine N-methyltransferase EHMT2; assay: Inhibition of G9a (unknown origin) using H3 as peptide substrate measured after 20 mins by fluorescence based analysis

pIC50 [1]: < 4.30
SMILES: CN1C(=O)C2C[C@]3([C@]45CC6C(=O)N(C)[C@H](CO)C(=O)N6[C@H]4Nc4ccccc45)c4ccccc4N[C@@H]3N2C(=O)[C@H]1CO (some centres not stated)

pIC50 [2]: > 8.60
SMILES: COc1cc2c(NC3CCN(C(C)C)CC3)nc(N3CCOCC3)nc2cc1OCCCN1CCCC1

pIC50 [1]: > 7.82
pKi [4]: 8.05
pKi [5]: 7.82
SMILES: COc1cc2c(NC3CCN(C)CC3)nc(N3CCCN(C)CC3)nc2cc1OCCOCCN(C)C

pIC50 [2]: 9.15
SMILES: COc1cc2c(NC3CCN(C(C)C)CC3)cc(C3CCCCC3)nc2cc1OCCCN1CCCC1

pIC50 [2]: 8.10
half-life [16]: > 2.4 h
half-life [17]: 0.1 h
half-life [18]: 10.4 h
SMILES: COc1cc2c(NC3CCN(C)CC3)cc(-c3ccc(C)o3)nc2cc1OCCCN1CCCC1

pIC50 [21]: 7.12
SMILES: COc1cc2c(cc1C1=CCN(C)CCC1)N=C(N)C21CCC1
inhibition at 30 µM [20]: 1%

pIC50 [2]: 7.66
half-life [16]: > 2.4 h
half-life [17]: 0.6 h
half-life [18]: 24.2 h
SMILES: COc1cc2c(NC3CCN(C4CC4)CC3)cc(-c3ccc(C)o3)nc2cc1OCCCN1CCCC1

Second part, the compound before the results:

SMILES: Cc1c(C(=O)N[C@@H](CCC2CC2)C(=O)Nc2ccc(C#N)cc2)[nH]c2c1C(=O)CC(C)(C)C2
pIC50 [2]: 7.28
Cmax [3]: 42.4 µM

SMILES: COc1cc2c(NC3CCN(C(C)C)CC3)nc(C3CCCCC3)nc2cc1OCCCN1CCCC1
pEC50 [6]: 5.12

SMILES: COc1cc2nc(N3CCN(C)CC3)nc(NC3CCN(Cc4ccccc4)CC3)c2cc1OC
pIC50 [7]: 5.47
pIC50 [8]: 5.25
pIC50 [9]: 5.48
pIC50 [10]: 5.43
pIC50 [11]: > 6.00
pIC50 [12]: > 6.00
pIC50 [13]: 5.11
pIC50 [14]: 5.07
pIC50 [15]: 5.11

SMILES: COc1cc2c(N(C)C3CCN(C(C)C)CC3)nc(C3CCCCC3)nc2cc1OCCCN1CCCC1
pIC50 [1]: 8.30
pIC50 [2]: < 8.00

SMILES: CN1C(=O)[C@]23C[C@]4([C@]56C[C@]78SS[C@](CO)(C(=O)N7[C@H]5Nc5ccccc56)N(C)C8=O)c5ccccc5N[C@@H]4N2C(=O)[C@@]1(CO)SS3
pIC50 [1]: 5.77

SMILES: CCN(c1cc(-c2ccc(CN3CCOCC3)cc2)cc(C(=O)NCc2c(C)cc(C)[nH]c2=O)c1C)C1CCOCC1 [TAZEMETOSTAT]
pIC50 [1]: 7.82

SMILES: CN1C(=O)C2C[C@]3([C@]45CC6C(=O)N(C)[C@@H](CO)C(=O)N6[C@H]4Nc4ccccc45)c4ccccc4N[C@@H]3N2C(=O)[C@@H]1CO (some centres not stated)
pIC50 [1]: < 4.30

SMILES: COc1cc2c(cc1C1=CCNCCC1)N=C(N)C21CCC1
pIC50 [19]: 7.47
inhibition at 30 µM [20]: 5%
pIC50 [21]: 7.47

SMILES: CNc1cc(C)nc(Nc2ccc(OC)c(C3=CCNCCC3)c2)n1
pIC50 [21]: 7.49
